Reference: patent US12624044B2, “SMARCA degraders and uses thereof” (Kymera Therapeutics, Inc., priority 2019, dated 2026)
Where a name gives a salt, the structure may show the parent alone.

Key:
SMARCA2 [1] = biological target: T1, SMARCA2 (Homo sapiens, UniProt P51531); assay: MSD SMARCA2 degradation in NCI-H1299 cell line (24 h); assay type: cell-based; parameters: HC: NCI-H1299 cells treated with DMSO; host or cells: NCI-H1299; details: for DC50: NCI-H1299 cells, read-out: SMARCA2 MSD H1299 degradation 24 h: External Abs-DC50; for Dmax: NCI-H1299, NCI-H1299 cells
T1 sequence (P51531 whole entry): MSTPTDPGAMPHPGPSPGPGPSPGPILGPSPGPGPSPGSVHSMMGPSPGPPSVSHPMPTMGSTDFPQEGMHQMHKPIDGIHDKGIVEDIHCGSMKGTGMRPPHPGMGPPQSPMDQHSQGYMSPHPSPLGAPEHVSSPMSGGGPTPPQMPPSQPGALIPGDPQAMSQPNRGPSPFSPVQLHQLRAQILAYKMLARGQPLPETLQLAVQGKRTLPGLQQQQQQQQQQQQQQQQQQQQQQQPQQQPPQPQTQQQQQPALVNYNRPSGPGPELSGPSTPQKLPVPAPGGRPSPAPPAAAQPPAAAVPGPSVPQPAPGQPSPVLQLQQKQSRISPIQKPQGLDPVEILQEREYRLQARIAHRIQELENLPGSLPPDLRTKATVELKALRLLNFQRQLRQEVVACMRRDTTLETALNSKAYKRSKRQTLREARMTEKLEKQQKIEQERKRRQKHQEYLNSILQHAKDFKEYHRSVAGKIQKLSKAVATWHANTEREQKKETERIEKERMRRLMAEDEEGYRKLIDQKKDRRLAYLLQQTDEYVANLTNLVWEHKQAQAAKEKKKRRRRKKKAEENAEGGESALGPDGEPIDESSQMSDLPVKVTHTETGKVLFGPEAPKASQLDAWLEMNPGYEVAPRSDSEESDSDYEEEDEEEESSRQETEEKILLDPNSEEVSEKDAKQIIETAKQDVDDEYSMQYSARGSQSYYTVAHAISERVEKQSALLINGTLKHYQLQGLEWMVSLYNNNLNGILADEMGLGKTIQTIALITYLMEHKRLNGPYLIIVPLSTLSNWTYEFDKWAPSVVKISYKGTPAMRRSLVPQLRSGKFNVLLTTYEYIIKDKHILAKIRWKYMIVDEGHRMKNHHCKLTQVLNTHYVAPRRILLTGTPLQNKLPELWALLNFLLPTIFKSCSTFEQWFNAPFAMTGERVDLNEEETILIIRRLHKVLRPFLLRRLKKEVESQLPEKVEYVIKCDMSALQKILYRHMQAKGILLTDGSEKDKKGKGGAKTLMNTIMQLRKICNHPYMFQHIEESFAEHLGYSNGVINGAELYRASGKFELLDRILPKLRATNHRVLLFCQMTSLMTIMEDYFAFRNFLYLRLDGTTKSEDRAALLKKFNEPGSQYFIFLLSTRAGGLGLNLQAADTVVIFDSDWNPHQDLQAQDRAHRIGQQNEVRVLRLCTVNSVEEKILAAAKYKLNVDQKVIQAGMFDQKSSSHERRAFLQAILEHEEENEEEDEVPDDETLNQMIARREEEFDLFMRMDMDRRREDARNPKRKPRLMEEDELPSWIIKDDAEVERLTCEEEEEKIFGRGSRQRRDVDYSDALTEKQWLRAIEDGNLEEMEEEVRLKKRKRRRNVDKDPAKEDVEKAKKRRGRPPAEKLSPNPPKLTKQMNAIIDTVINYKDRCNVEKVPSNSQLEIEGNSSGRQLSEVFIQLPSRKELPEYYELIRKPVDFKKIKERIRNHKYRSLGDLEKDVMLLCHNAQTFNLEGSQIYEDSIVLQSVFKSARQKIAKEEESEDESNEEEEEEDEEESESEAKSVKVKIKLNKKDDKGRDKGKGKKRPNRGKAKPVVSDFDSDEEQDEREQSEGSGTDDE
Summary of the method: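 NCI-H1299 cells treated 24 h with a 3-fold, 9-point compound dilution series, then lysed in RIPA with protease inhibitor. SMARCA2 in lysate-coated MSD plates detected with rabbit anti-SMARCA2 (0.3 ug/ml) and SULFO-TAG secondary. Relative SMARCA2 level normalized between DMSO-treated H1299 cells and SMARCA2-negative A2780 cells; Dmax % binned A–D.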

SMARCA2 [2] = biological target: T1, SMARCA2; assay: MSD SMARCA2 degradation in A549 cell line; assay type: cell-based; details: 24 h; for Dmax: A549, A549 cells; for DC50: A549 cells, read-out: SMARCA2 MSD A549 degradation 24 h: Average external-Abs DC50
Procedure: Cells were seeded into 96-well plates (A549 cells: 2×10^4 cells/well/100 ul media) abd incubated overnight. The next day, 200 nl compound were added into the intermediate plate with Echo (Labcyte 550) from source plate containing a 3-fold serial dilution from top concentration of 1 mM. The culture medium was changed with 80 ul of fresh medium and 80 ul of 2× compound solution was added into the well to make a final concentration of 1000 nM, 333.3 nM, 111.1 nM, 37.04 nM, 12.35 nM, 4.115 nM, 1.372 nM, 0.457 nM, 0.152 nM and 0 nM (DMSO). The wells were mixed and then incubated for 24 hours. The media was aspirated from the cultures and 60 ul pre-chilled PIPA lysis buffer (Boston BioProducts BP-115D) with protease/phosphatase inhibitor (Roche 05892791001/Roche 04906837001) was added into the well to lyze the cells for 20 minutes at 4° C. The MSD plate (L15XA) was coated with 40 ul cell lysate and incubated at 4° C. overnight. The next day, the plate was washed three times with TBST (CST #9997S), 150 ul/well. The MSD plates was blocked with 150 ul blocking buffer per well and shaked for 1 hr at RT, 600 rpm. The blocking buffer was 3% Blocker A (MSD, R93BA-4) in TBST. The MSD plate was washed three times with 150 ul/well of TBST and 25 ul/well of detection antibody (Rabbit anti-SMARCA2/BRM antibody, 100 μg/ml, ab223735) was added at final concentration of 1 ug/ml diluted in 1% Blocking buffer and shaken for 1 hour at RT, 600 rpm. The MSD plate was washed three times with 150 ul/well of TBST and 25 ul/well of SULFO-TAG anti-rabbit antibody (MSD, R32AB-1) was added at final concentration of 1 ug/ml diluted in 1% Blocking buffer and shaken for 1 hour at RT, 600 rpm. The MSD plate was washed three times with 150 ul/well of TBST and 150 ul/well of 2×MSD reading buffer diluted from 4× (MSD, R92TC-2) with water was added. Lastly, the MSD instrument was read.
The letter codes for the percentage of SMARCA2 degradation after 24 hours (Dmax %) include: A (>90% degradation), B (>70-90% degradation), C (50-70% degradation), and D (<50% degradation).

| SMILES | DC50 (SMARCA2 [1]) | Dmax (SMARCA2 [1]) | Dmax (SMARCA2 [2]) | DC50 (SMARCA2 [2]) |
| --- | --- | --- | --- | --- |
| Cc1ncsc1-c1ccc(CNC(=O)[C@@H]2C[C@@H](O)CN2C(=O)[C@@H](NC(=O)COCCOCCOCCOCCOCCOCCNC(=O)c2ccc(C(C)n3cc(-c4cc(-c5ccccc5O)nnc4N)cn3)cc2)C(C)(C)C)cc1 (stereo partly drawn) [I-225] | > 1 µM |  |  |  |
| Cc1ncsc1-c1ccc(CNC(=O)[C@@H]2C[C@@H](O)CN2C(=O)[C@@H](NC(=O)COCCOCCOCCOCCOCCNC(=O)c2ccc(C(C)n3cc(-c4cc(-c5ccccc5O)nnc4N)cn3)cc2)C(C)(C)C)cc1 (stereo partly drawn) [I-226] | > 1 µM |  |  |  |
| Cc1ncsc1-c1ccc(CNC(=O)[C@@H]2C[C@@H](O)CN2C(=O)[C@@H](NC(=O)COCCOCCOCCOCCNC(=O)c2ccc(C(C)n3cc(-c4cc(-c5ccccc5O)nnc4N)cn3)cc2)C(C)(C)C)cc1 (stereo partly drawn) [I-227] | > 1 µM |  |  |  |
| Cc1ncsc1-c1ccc(CNC(=O)[C@@H]2C[C@@H](O)CN2C(=O)[C@@H](NC(=O)COCCOCCOCCNC(=O)CCCCCCCCOc2ccc(N3C[C@H]4C[C@@H]3CN4/C=C/C(=O)c3ccccc3O)nc2)C(C)(C)C)cc1 [I-228] | > 1 µM |  |  |  |
| Cc1ncsc1-c1ccc(CNC(=O)[C@@H]2C[C@@H](O)CN2C(=O)[C@@H](NC(=O)COCCOCCOCCOCCOCCOCCNC(=O)CCCCCCCCOc2ccc(N3C[C@H]4C[C@@H]3CN4/C=C/C(=O)c3ccccc3O)nc2)C(C)(C)C)cc1 [I-229] | > 1 µM |  |  |  |
| Cc1ncsc1-c1ccc(CNC(=O)[C@@H]2C[C@@H](O)CN2C(=O)[C@@H](NC(=O)COCCOCCOCCOCCOCCNC(=O)CCCCCCCCOc2ccc(N3C[C@H]4C[C@@H]3CN4/C=C/C(=O)c3ccccc3O)nc2)C(C)(C)C)cc1 [I-230] | > 1 µM |  |  |  |
| Cc1ncsc1-c1ccc(CNC(=O)[C@@H]2C[C@@H](O)CN2C(=O)[C@@H](NC(=O)COCCOCCOCCOCCNC(=O)CCCCCCCCOc2ccc(N3C[C@H]4C[C@@H]3CN4/C=C/C(=O)c3ccccc3O)nc2)C(C)(C)C)cc1 [I-231] | > 1 µM |  |  |  |
| COc1cc(C(=O)NCCCN2CCN(Cc3ccc(-c4cc(-c5ccccc5O)nnc4N)cc3)CC2)ccc1NC(=O)[C@@H]1N[C@@H](CC(C)(C)C)[C@](C#N)(c2ccc(Cl)cc2F)[C@H]1c1cccc(Cl)c1F [I-232, (2R,3S,4R,5S)—N-(4-((3-(4-(4-(3-amino-6-(2-hydroxyphenyl)pyridazin-4-yl)benzyl)piperazin-1-yl)propyl)carbamoyl)-2-methoxyphenyl)-3-(3-chloro-2-fluorophenyl)-4-(4-chloro-2-fluorophenyl)-4-cyano-5-neopentylpyrrolidine-2-carboxamide] | > 1 µM | < 50% |  |  |
| COc1cc(C(=O)NCCCCCCCCCN2CCN(Cc3ccc(-c4cc(-c5ccccc5O)nnc4N)cc3)CC2)ccc1NC(=O)[C@@H]1N[C@@H](CC(C)(C)C)[C@](C#N)(c2ccc(Cl)cc2F)[C@H]1c1cccc(Cl)c1F [I-233, (2R,3S,4R,5S)—N-[4-[9-[4-[[4-[3-amino-6-(2-hydroxyphenyl)pyridazin-4-yl]phenyl]methyl]piperazin-1-yl]nonylcarbamoyl]-2-methoxy-phenyl]-3-(3-chloro-2-fluoro-phenyl)-4-(4-chloro-2-fluoro-phenyl)-4-cyano-5-(2,2-dimethylpropyl)pyrrolidine-2-carboxamide] | > 1 µM | < 50% |  |  |
| COc1cc(C(=O)NCCCCCCCCCCCNCc2ccc(N3CCN(c4cc(-c5ccccc5O)nnc4N)CC3)cc2)ccc1NC(=O)[C@@H]1N[C@@H](CC(C)(C)C)[C@](C#N)(c2ccc(Cl)cc2F)[C@H]1c1cccc(Cl)c1F [I-234] | > 1 µM | 50 to 70% |  |  |
| COc1cc(C(=O)NCCCCCCCCCNCc2ccc(N3CCN(c4cc(-c5ccccc5O)nnc4N)CC3)cc2)ccc1NC(=O)[C@@H]1N[C@@H](CC(C)(C)C)[C@](C#N)(c2ccc(Cl)cc2F)[C@H]1c1cccc(Cl)c1F [I-235] | > 1 µM | < 50% |  |  |
| COc1cc(C(=O)NCCCCCCCNCc2ccc(N3CCN(c4cc(-c5ccccc5O)nnc4N)CC3)cc2)ccc1NC(=O)[C@@H]1N[C@@H](CC(C)(C)C)[C@](C#N)(c2ccc(Cl)cc2F)[C@H]1c1cccc(Cl)c1F [I-236] | > 1 µM | < 50% |  |  |
| COc1cc(C(=O)NCCCCCNCc2ccc(N3CCN(c4cc(-c5ccccc5O)nnc4N)CC3)cc2)ccc1NC(=O)[C@@H]1N[C@@H](CC(C)(C)C)[C@](C#N)(c2ccc(Cl)cc2F)[C@H]1c1cccc(Cl)c1F [I-237] | > 1 µM | < 50% |  |  |
| COc1cc(C(=O)NCCCNCc2ccc(N3CCN(c4cc(-c5ccccc5O)nnc4N)CC3)cc2)ccc1NC(=O)[C@@H]1N[C@@H](CC(C)(C)C)[C@](C#N)(c2ccc(Cl)cc2F)[C@H]1c1cccc(Cl)c1F [I-238, (2R,3S,4R,5S)—N-(4-((3-((4-(4-(3-amino-6-(2-hydroxyphenyl)pyridazin-4-yl)piperazin-1-yl)benzyl)amino)propyl)carbamoyl)-2-methoxyphenyl)-3-(3-chloro-2-fluorophenyl)-4-(4-chloro-2-fluorophenyl)-4-cyano-5-neopentylpyrrolidine-2-carboxamide hydrochloride] | > 1 µM |  |  |  |
| Cn1c(=O)n(C2CCC(=O)NC2=O)c2ccc(CCCCCCCCCNCc3cccc(C#Cc4cc(NC(=O)Nc5cc(F)ncc5CO)ccn4)c3)cc21 (stereo not drawn) [I-302, 1-(2-((3-(((9-(1-(2,6-dioxopiperidin-3-yl)-3-methyl-2-oxo-2,3-dihydro-1H-benzo[d]imidazol-5-yl)nonyl)amino)methyl)phenyl)ethynyl)pyridin-4-yl)-3-(2-fluoro-5-(hydroxymethyl)pyridin-4-yl)urea] |  |  | < 50% | > 1 µM |
| Cn1c(=O)n(C2CCC(=O)NC2=O)c2ccc(CCCCCCCCCNCc3ccc(C#Cc4cc(NC(=O)Nc5cc(F)ncc5CO)ccn4)cc3)cc21 (stereo not drawn) [I-303] |  |  | < 50% | > 1 µM |
| CN(CCCOCCCc1cccc2c1n(C)c(=O)n2C1CCC(=O)NC1=O)Cc1ccc(C#Cc2cc(NC(=O)Nc3cc(F)ncc3CO)ccn2)cc1 (stereo not drawn) [I-304] |  |  | < 50% | > 1 µM |
| Cn1c(=O)n(C2CCC(=O)NC2=O)c2cccc(CN3CCC(OC4CCN(Cc5ccc(C#Cc6cc(NC(=O)Nc7cc(F)ncc7CO)ccn6)cc5)CC4)CC3)c21 (stereo not drawn) [I-305] |  |  | < 50% | > 1 µM |
| Cn1c(=O)n(C2CCC(=O)NC2=O)c2ccc(CCCOCCCCN3CCN(Cc4ccc(C#Cc5cc(NC(=O)Nc6cc(F)ncc6CO)ccn5)cc4)CC3)cc21 (stereo not drawn) [I-306] |  |  | < 50% | > 1 µM |
| Cn1c(=O)n(C2CCC(=O)NC2=O)c2cccc(CCCOC3CCN(Cc4ccc(C#Cc5cc(NC(=O)Nc6cc(F)ncc6CO)ccn5)cc4)CC3)c21 (stereo not drawn) [I-307] |  |  | < 50% | > 1 µM |
| CN(Cc1ccc(C#Cc2cc(NC(=O)Nc3cc(F)ncc3CO)ccn2)cc1)CC1CCN(Cc2cccc3c2n(C)c(=O)n3C2CCC(=O)NC2=O)CC1 (stereo not drawn) [I-308] |  |  | < 50% | > 1 µM |
| O=C1CCC(n2c(=O)oc3c(CCCOC4CCN(Cc5ccc(C#Cc6cc(NC(=O)Nc7cc(F)ncc7CO)ccn6)cc5)CC4)cccc32)C(=O)N1 (stereo not drawn) [I-309] |  |  | < 50% | > 1 µM |
| CN(Cc1ccc(C#Cc2cc(NC(=O)Nc3cc(F)ncc3CO)ccn2)cc1)C1CCN(Cc2cccc3c2n(C)c(=O)n3C2CCC(=O)NC2=O)CC1 (stereo not drawn) [I-310] |  |  | < 50% | > 1 µM |
| CN(Cc1ccc(C#Cc2cc(NC(=O)Nc3cc(F)ncc3CO)ccn2)cc1)C1CCN(C(=O)c2cccc3c2n(C)c(=O)n3C2CCC(=O)NC2=O)CC1 (stereo not drawn) [I-311] |  |  | < 50% | > 1 µM |
| CN(CCCOCCCc1cccc2c1n(C)c(=O)n2C1CCC(=O)NC1=O)Cc1cccc(C#Cc2cc(NC(=O)Nc3cc(F)ncc3CO)ccn2)c1 (stereo not drawn) [I-312] |  |  | < 50% | > 1 µM |
